Assay results as given in patent publication US10357036B2, “Compounds for controlling arthropods” (priority 2015, dated 2019).
Like-named read-outs stand apart in the source and are kept apart here.

Assays:
[1] = tested on: Ctenocephalides felis; assay: Ctenocephalides felis in vitro contact test with adult cat fleas; format: in vivo; conditions: application rate 5 μg/cm^2 (=500 g/ha); after 48 h; dead or moribund fleas
Outline: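 Glass tubes were coated with compound in acetone (900 ppm solution gives 5 μg/cm²), dried, then loaded with 5–10 adult cat fleas. Held horizontal at room temperature and ambient humidity for 48 h. Efficacy is the % of fleas dead or moribund (motionless or uncoordinated after knock-down).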

[2] = tested on: Musca domestica; assay: Musca domestica test; format: in vivo; conditions: 100 ppm; adult houseflies; after 2 days
Experimental: (§1) • Solvent: dimethyl sulfoxide
To produce a suitable active ingredient formulation, 10 mg of active ingredient are mixed with 0.5 ml of dimethyl sulfoxide, and the concentrate is diluted with water to the desired concentration.
Vessels containing a sponge treated with sugar solution and the active ingredient formulation of the desired concentration are populated with 10 adult houseflies (Musca domestica).

[3] = tested on: Tetranychus urticae; assay: Tetranychus urticae spray test, OP-resistant (bean plants); format: in vivo; conditions: 4 ppm; after 7 days
Experimental: To produce further test concentrations, the latter is diluted with emulsifier-containing water. When addition of ammonium salts and/or penetrants is required, these are each added at a concentration of 1000 ppm to the preparation solution.
Bean plants (Phaseolus vulgaris), which are heavily infested by all stages of the greenhouse red spider mite (Tetranychus urticae), are treated by being sprayed with the active compound preparation at the desired concentration.

[4] = tested on: cattle ticks (Boophilus microplus) Parkhurst strain, SP-resistant; assay: Boophilus microplus dip test; format: in vivo; conditions: 100 ppm; assessed after 7 days
Experimental: • Test animals: cattle ticks (Boophilus microplus) Parkhurst strain, SP-resistant • Solvent: dimethyl sulfoxide
10 mg of active ingredient are dissolved in 0.5 ml of dimethyl sulfoxide. To produce a suitable formulation, the active ingredient solution is diluted with water to the concentration desired in each case.
This active ingredient formulation is pipetted into tubes. 8-10 engorged adult female cattle ticks (Boophilus microplus) are transferred into a further tube with holes. The tube is immersed into the active ingredient formulation, and all the ticks are completely wetted. After the liquid has run out, the ticks are transferred on filter discs into plastic dishes and stored in a climate-controlled room.
Efficacy is assessed after 7 days by laying of fertile eggs. Eggs which are not visibly fertile are stored in a climate-controlled cabinet until the larvae hatch after about 42 days. An efficacy of 100% means that none of the ticks has laid any fertile eggs; 0% means that all the eggs are fertile.

[5] = tested on: Ctenocephalides felis; assay: Ctenocephalides felis oral test; format: in vivo; conditions: 100 ppm in citrated cattle blood; after 2 days
[6] = tested on: Rhipicephalus sanguineus; assay: Rhipicephalus sanguineus in vitro contact test with adult brown dog ticks; format: in vivo; conditions: after 48 h
Outline: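 Adult Rhipicephalus sanguineus (5-10 per tube) held in glass tubes coated with compound from acetone solution, 900 ppm giving 5 μg/cm^2, in the dark at room temperature. After 48 h ticks put on a 45-50° C hotplate up to 5 min; motionless or uncoordinated ticks scored dead/moribund as % efficacy.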

[7] = tested on: Boophilus microplus; assay: Boophilus microplus injection test; format: in vivo; conditions: 20 μg/animal; assessed after 7 days
Experimental: as §1
1 μl of the active ingredient solution is injected into the abdomen of 5 engorged adult female cattle ticks (Boophilus microplus). The animals are transferred into dishes and kept in a climate-controlled room.

[8] = tested on: Spodoptera frugiperda; assay: Spodoptera frugiperda spray test; format: in vivo; conditions: 100 g/ha, after 7 days
[9] = tested on: Phaedon cochleariae; assay: Phaedon cochleariae spray test; conditions: for efficacy: 100 g/ha, after 7 days
[10] = tested on: Meloidogyne incognita; assay: Meloidogyne incognita test; format: in vivo; conditions: 20 ppm; after 14 days
Experimental: • Solvent: 125.0 parts by weight of acetone
To produce a suitable active compound preparation, 1 part by weight of active compound is mixed with the stated amount of solvent and the concentrate is diluted to the desired concentration with water.
Vessels are filled with sand, active compound solution, an egg/larvae suspension of the southern root-knot nematode (Meloidogyne incognita) and lettuce seeds. The lettuce seeds germinate and the plants develop. The galls develop on the roots.
After 14 days, the nematicidal efficacy in % is determined by the formation of galls. 100% means that no galls were found; 0% means that the number of galls on the treated plants corresponds to the untreated control.

[11] = tested on: Tetranychus urticae; assay: Tetranychus urticae spray test, OP-resistant (bean leaf discs); format: in vivo; conditions: 100 g/ha; after 6 days
Experimental: (§2) After 6 days, the efficacy in % is determined.

[12] = tested on: Myzus persicae; assay: Myzus persicae spray test (Chinese cabbage leaf discs); format: in vivo; conditions: 100 g/ha; after 6 days
Experimental: as §2

[13] = tested on: Amaranthus retroflexus (AMARE); assay: Herbicidal activity, pre-emergence; format: in vivo; conditions: 1280 g/ha, 3 weeks
Excerpt: Seeds of monocotyledonous and dicotyledonous weed plants and crop plants were placed in wood-fibre pots in sandy loam and covered with soil. The compounds according to the invention, formulated as emulsion concentrates (EC), were then applied to the surface of the covering soil as an emulsion at a water application rate equating to 600 to 800 Uha with addition of 0.2% wetting agent.
After the treatment, the pots were placed in a greenhouse and kept under good growth conditions for the test plants. The damage to the test plants was scored visually after a test period of 3 weeks by comparison with untreated controls (herbicidal activity in percent (%): 100% activity=the plants have died, 0% activity=like control plants). Here, for example, compounds No. Ia-17, Ia-37, Ia-28 and Ia-56 at an application rate of 1280 g/ha each show 100% efficacy against Amaranthus retroflexus (AMARE) and with the exception of Ia-56, even against Viola tricolor (VIOTR). Furthermore, compounds no. Ia-17, Ia-37 and Ia-28 at the same application rate show an 80% or better efficacy against Matricaria inodorae (MATIN) and Ia-17 and Ia-37 even against Stellaria media (STEME).

[14] = tested on: Anopheles gambiae strain RSPH (homozygot kdr); assay: whole plant or invertebrate; format: in vivo; conditions: read-out: efficacy (mortality)
Experimental: (§3) • Solvent: acetone+2000 ppm rapeseed oil methyl ester (RME)
(§4) To produce a suitable active compound formulation, the active compound is dissolved in the solvent (2 mg/ml). The active compound formulation is pipetted onto a glazed tile and, after it has dried off, adult mosquitoes of the species Anopheles gambiae strain RSPH (homozygot kdr) are placed onto the treated tile. The exposure time is 30 minutes.

[15] = tested on: Aedes aegypti strain MONHEIM; assay: whole plant or invertebrate; format: in vivo; conditions: read-out: efficacy (mortality)
Experimental: as §3
as §4, with “Aedes aegypti” for “Anopheles gambiae”, “MONHEIM” for “RSPH (homozygot kdr)”

[16] = application rate 5 μg/cm^2 (=500 g/ha), dead or moribund ticks

Compound	efficacy [1]	efficacy (rate of extermination) [2]	efficacy [3]	efficacy (rate of extermination) [5]	efficacy [6, 16]	efficacy (laying of fertile eggs) [7]	efficacy [8]	efficacy [9]	nematicidal efficacy (formation of galls) [10]	efficacy [11]	also measured
CC(=O)NCc1cc(-c2cnn(-c3c(Cl)cc(C(F)(C(F)(F)F)C(F)(F)F)cc3OC(F)F)c2)ccc1Cl [Ia-53]	90%	100%	99%	100%	100%	100%	100%	100%			efficacy (laying of fertile eggs) [4]: 100%
CCC(=O)NCc1cc(-c2cnn(-c3c(Cl)cc(C(F)(C(F)(F)F)C(F)(F)F)cc3OC(F)F)c2)ccc1Cl [Ia-51]	100%	100%	99%	100%	100%	100%	100%	100%			efficacy (laying of fertile eggs) [4]: 100%
CC(=O)NCc1cc(-c2cnn(-c3c(Cl)cc(C(F)(C(F)(F)F)C(F)(F)F)cc3OC(F)(F)F)c2)ccc1Cl [Ia-57]		100%	99%	100%	80%	100%	100%	100%			
O=C(NCc1cc(-c2cn(-c3c(Cl)cc(C(F)(C(F)(F)F)C(F)(F)F)cc3Cl)cn2)ccc1F)C1CC1 [I-T2-04]	100%		100%	100%		100%	83%	100%			efficacy (laying of fertile eggs) [4]: 100%
CCC(=O)NCc1cccc(-c2cnn(-c3c(Cl)cc(C(F)(C(F)(F)F)C(F)(F)F)cc3Cl)c2)c1 [Ia-08]	100%	80%		100%	80%	100%	100%	100%	100%	90%	
CC(=O)NCc1cc(-c2cnn(-c3c(Cl)cc(C(F)(C(F)(F)F)C(F)(F)F)cc3C#N)c2)ccc1F [Ia-105]							100%	100%	90%	100%	efficacy [12]: 90%
CC(=O)NCc1cc(-c2cnn(-c3c(Cl)cc(C(F)(C(F)(F)F)C(F)(F)F)cc3C(F)(F)F)c2)ccc1Cl [Ia-55]	70%	100%	99%	100%	100%	100%	100%	100%			
CC(=O)NCc1cccc(-c2cnn(-c3c(Cl)cc(C(F)(C(F)(F)F)C(F)(F)F)cc3C#N)c2)c1 [Ia-102]								100%	100%	90%	
CCC(=O)NCc1c(F)ccc(-c2cnn(-c3c(Cl)cc(C(F)(C(F)(F)F)C(F)(F)F)cc3C(F)F)c2)c1F [Ia-141]		100%		100%	100%	100%	100%	100%	90%	100%	
O=C(NCc1cc(-c2cnn(-c3c(Cl)cc(C(F)(C(F)(F)F)C(F)(F)F)cc3OC(F)(F)F)c2)ccc1Cl)C1CC1 [Ia-56]	100%	100%		100%		100%	100%	100%			efficacy ([6]; application rate 1 μg/cm^2 (=100 g/ha)): 100%; herbicidal efficacy [13]: 100%
CC(=O)N(C)Cc1cccc(-c2cnn(-c3c(Cl)cc(C(F)(C(F)(F)F)C(F)(F)F)cc3Cl)c2)c1 [Ia-42]		80%		100%		100%		100%	90%	100%	
CC(=O)NCc1cc(-c2cnn(-c3c(Cl)cc(C(F)(C(F)(F)F)C(F)(F)F)cc3C(F)F)c2)ccc1F [Ia-34]							100%	100%	100%	100%	efficacy [12]: 90%
CC(=O)N(Cc1cc(-c2cnn(-c3c(Cl)cc(C(F)(C(F)(F)F)C(F)(F)F)cc3Cl)c2)ccc1Cl)C(C)=O [Ia-108, N-Acetyl-N-(2-chloro-5-{1-[2,6-dichloro-4-(1,1,1,2,3,3,3-heptafluoropropan-2-yl)phenyl]-1H-pyrazol-4-yl}benzyl)acetamide]	100%	100%		100%	80%	100%				90%	mortality at 100 mg/m2 [14]: 90 to 100%; chromatographic logP (reversed-phase C18 HPLC column, logP, HPLC, C18, acetonitrile/water with formic acid (note a)): 5.14; chromatographic logP (reversed-phase C18 HPLC column, logP^a, HPLC-MS method a)): 5.14; mortality at 20 mg/m2 [15]: 90 to 100%; mortality at 100 mg/m2 [15]: 90 to 100%; pest or weed control at 100 g/ha ([8]; Spodoptera frugiperda, 168 h, read-out: efficacy): 100%; pest or weed control at 100 g/ha ([9]; Phaedon cochleariae, 168 h, read-out: efficacy): 100%
CC(=O)NCc1cc(-c2cnn(-c3c(Cl)cc(C(F)(C(F)(F)F)C(F)(F)F)cc3Cl)c2)ccc1F [Ia-15]	100%	100%		100%	100%	100%	100%	100%	90%	100%	efficacy [12]: 90%; efficacy (laying of fertile eggs) [4]: 90%
